The results in this text go back to ChEMBL document CHEMBL1130966, “Dibasic benzo[b]thiophene derivatives as a novel class of active site directed thrombin inhibitors. 2. Exploring interactions at the proximal (S2) binding site” (Bioorg Med Chem Lett, 1998).

In this test the target is Prothrombin (Homo sapiens) (UniProt P00734). Description: Binding affinity for human alpha-thrombin.
`FC(F)(F)c1cc(Cc2c(-c3ccc(OCCN4CCCC4)cc3)sc3ccccc23)ccc1OCCN1CCCC1`: the K ass was 2.4e+06 l M-1.

For `Brc1cc(OCCN2CCCC2)ccc1Cc1c(-c2ccc(OCCN3CCCC3)cc2)sc2ccccc12`, the K ass was 270000 l M-1. Under `CCCCc1cc(Cc2c(-c3ccc(OCCN4CCCC4)cc3)sc3ccccc23)ccc1OCCN1CCCC1` stands 420000 l M-1. Consider `Cc1cc(Cc2c(-c3ccc(OCCN4CCCC4)cc3)sc3ccccc23)ccc1OCCN1CCCC1`, for which the K ass was 2.42e+07 l M-1. Under `CCNc1cc(Cc2c(-c3ccc(OCCN4CCCC4)cc3)sc3ccccc23)ccc1OCCN1CCCC1` stands 290000 l M-1; under `CC(=O)Nc1cc(Cc2c(-c3ccc(OCCN4CCCC4)cc3)sc3ccccc23)ccc1OCCN1CCCC1`, 310000 l M-1; under `Fc1cc(Cc2c(-c3ccc(OCCN4CCCC4)cc3)sc3ccccc23)ccc1OCCN1CCCC1`, 4.87e+06 l M-1. For `COc1cc(Cc2c(-c3ccc(OCCN4CCCC4)cc3)sc3ccccc23)ccc1OCCN1CCCC1` the value was 1.22e+07 l M-1; for `Brc1cc(Cc2c(-c3ccc(OCCN4CCCC4)cc3)sc3ccccc23)ccc1OCCN1CCCC1`, 2.75e+07 l M-1.

In the case of `O=S(=O)(Nc1cc(Cc2c(-c3ccc(OCCN4CCCC4)cc3)sc3ccccc23)ccc1OCCN1CCCC1)c1ccccc1`, the K ass is 220000 l M-1. For `O=[N+]([O-])c1cc(Cc2c(-c3ccc(OCCN4CCCC4)cc3)sc3ccccc23)ccc1OCCN1CCCC1` the value was 1.02e+07 l M-1; for `Nc1cc(Cc2c(-c3ccc(OCCN4CCCC4)cc3)sc3ccccc23)ccc1OCCN1CCCC1`, 1.1e+06 l M-1.

Regarding `Oc1cc(Cc2c(-c3ccc(OCCN4CCCC4)cc3)sc3ccccc23)ccc1OCCN1CCCC1`, the K ass was 1.1e+06 l M-1. For the compound `CCc1cc(Cc2c(-c3ccc(OCCN4CCCC4)cc3)sc3ccccc23)ccc1OCCN1CCCC1`, the K ass is 7.27e+06 l M-1. Under `CS(=O)(=O)Nc1cc(Cc2c(-c3ccc(OCCN4CCCC4)cc3)sc3ccccc23)ccc1OCCN1CCCC1` stands 410000 l M-1; under `CCCc1cc(Cc2c(-c3ccc(OCCN4CCCC4)cc3)sc3ccccc23)ccc1OCCN1CCCC1`, 1.02e+06 l M-1.
